Data published in patent publication US20160120950A1, “Pharmaceutical Formulations Comprising Incretin Mimetic Peptide and Aprotic Polar Solvent” (Amylin Pharmaceuticals, LLC, priority 2008, published 2016).

Tests used:
[1] = Stability of exendin-4 in DMSO formulations, text summary of SCX- and RP-HPLC purity (Example 1, FIGS. 1 and 2); type: physicochemical
Experimental: (§1) The stability of exendin-4 in DMSO and DMSO with 0.5% water added may be evaluated as follows. The evaluation may be based on the stability of exendin-4 samples stored at 5, 25, and 40° C. for up to 6 months. Further, the stability of exendin-4 in DMSO, as compared to aqueous buffers at a pH of 4.5 may be evaluated.
(§2) Three HPLC methods may be used to analyze the samples: size exclusion HPLC (SEC-HPLC) to determine potency (mg/ml) and two methods to evaluate purity (%), a strong cation exchange (SCX) method and a reversed-phase (RP) method. The methods may be adapted as necessary to achieve appropriate sample analysis. Additionally, the water content of the samples may be evaluated using a suitable Karl Fischer analytical procedure.
More particularly, 25 mg/mL samples of exendin-4 in neat DMSO and DMSO/0.5% water are prepared in N2 atmosphere and held at 5, 25, and 40° C. for 6 months (abbreviated as “mos.”).
Exendin-4 may be formulated in DMSO and DMSO spiked with 0.5% water. […] Exendin-4 purity is reduced about 28% from initial values after 6 months at 40° C. At 25° C., the purity is decreased about 3 to 4% over the same time period. (See FIGS. 1 and 2). However, at 5° C. the purity remains within 0.4 to 0.6% of initial purity values. […] By comparison to aqueous product stability (FIGS. 3 and 4), it is apparent that exendin-4 stability is improved in the aprotic, polar solvent DMSO.

[2] = Stability of exendin-4 in DMSO, DMSO/0.5% water and aqueous buffer pH 4.5, SCX-HPLC purity (Example 1); type: physicochemical; settings: FIGS. 3 and 4, 25° C. and 40° C.
Experimental: as §1, §2
For a six-month delivery period, approximately 3600 μg of exendin-4 may be desirable based on a 20 μg/day dose. Assuming a representative delivery reservoir of approximately 150 μL, a concentration of about 25 mg/mL may be desirable. Further, proteins and peptides are commonly lyophilized and often include some residual moisture. As such, the effect of water on peptide stability may be investigated, and samples may be prepared in neat DMSO and in DMSO with 0.5% water added.
This concentration of water will depress the 18.6° C. freezing point of DMSO to only about 17.5° C. […]

[3] = Exendin-4 stability in aprotic, polar solvent systems, SCX-Purity (Example 2); type: physicochemical; settings: 10% w/w water (0.67 mole fraction DMSO)
Experimental: The stability of exendin-4 in other aprotic, polar solvents and in DMSO-based co-solvent systems may also be evaluated. The evaluation may be based on the stability of exendin-4 samples stored at 5, 25, and 37° C. for up to 6 months. In addition to dimethyl sulfoxide (DMSO), solvents for evaluation include water, dimethyl acetamide (DMA), dimethyl formamide (DMF), N-methylpyrrolidone (NMP), Propylene carbonate, and ethyl acetate.
as §2, with “The methods may be adapted as necessary to achieve appropriate sample analysis.” left out
Nonaqueous Solvents: The stability of exendin-4 in aprotic, polar solvents with freezing points lower than 0° C. may be evaluated. […]
Co-solvent System with Water: Water at approximately 8% w/w depresses the freezing point of DMSO to just below 0° C. To provide additional protection against freezing, a 10% w/w water solution may be evaluated. […]
Co-solvent Systems with Aprotic, Polar Solvents: Other solvents can also be used to depress the freezing point of DMSO. […] Appropriate amounts of the non-aqueous solvent may first be determined. Next the solubility of exendin-4 may be evaluated by visual inspection in the co-solvent mixture. […]

cloned GLP-1 receptor = settings: cells transfected with the cloned GLP-1 receptor; cited from earlier work
[4] = Stability of exendin-4 in DMSO and DMSO/0.5% water, SEC-HPLC potency (Example 1); type: physicochemical; settings: in DMSO and DMSO with 0.5% water, up to 6 months at 5, 25, 40° C.
Experimental: as §1, §2
For example, SEC-HPLC can be used to measure the potency of an exendin-4 solution by external standard assay, based on total peptide content of the exendin-containing solution at 214 nm, as compared to qualified reference standard solutions. The identity, potency and label strength of exendin-4 can be established by comparison of the retention times of the exendin-4 peaks in the sample and reference standard solutions.
For a six-month delivery period, approximately 3600 μg of exendin-4 may be desirable based on a 20 μg/day dose. Assuming a representative delivery reservoir of approximately 150 μL, a concentration of about 25 mg/mL may be desirable. […]

| Substance | difference due to the presence of 0.5% water ([1]; DMSO vs DMSO spiked with 0.5% water) | purity reduced from initial values ([1]; in DMSO and DMSO with 0.5% water, 6 months at 40° C.) | stability in DMSO by comparison to aqueous product stability [2] | stability of exendin-4 in DMSO solvent solution containing 10% w/w water [3] | activity at the cloned GLP-1 receptor (cAMP) (cloned GLP-1 receptor) | changes in potency [4] |
| --- | --- | --- | --- | --- | --- | --- |
| Exendin-4 | no substantial difference | about 28% | improved | enhanced | agonist | Essentially no changes |
| exendin[9-39] | – | – | – | – | antagonist | – |
